# Reference: patent US20230183292A1, “IMMUNOMODULATORS” (priority 2020, published 2023)
# Starred links: 1 amine or outer side, 2 acyl side, 3 side chain; linkers in the order of their positions; H or OH if unused. Positions of bridges follow the written chain, without caps; N, C: chain ends. Non-standard residues stand in square brackets, D forms with d. Residues, ends and D or L forms follow the SMILES beside them. *: point of attachment. X2 = C[C@H](CCC(=O)NCCCN(CCCCNC(=O)CC[C@@H](C)[C@@H]1CC[C@H]2[C@@H]3[C@H](O)C[C@@H]4C[C@H](O)CC[C@]4(C)[C@H]3C[C@H](O)[C@@]21C)*)[C@H]1CC[C@H]2[C@@H]3[C@H](O)C[C@@H]4C[C@H](O)CC[C@]4(C)[C@H]3C[C@H](O)[C@]12C; Cholyl = C[C@H](CCC(=O)*)[C@H]1CC[C@H]2[C@@H]3[C@H](O)C[C@@H]4C[C@H](O)CC[C@]4(C)[C@H]3C[C@H](O)[C@]12C; Trp(1-CH2CO) = O=C([C@H](Cc1cn(CC(=O)[*:3])c2ccccc12)N[*:1])[*:2]; Hyp = O=C(O)[C@@H]1C[C@@H](O)CN1; X12 = O=c1c([*:1])c([*:2])c1=O; NMeNle = CCCC[C@H](NC)C(=O)O; NMeA = CN[C@@H](C)C(=O)O; Dab = NCC[C@H](N)C(=O)O; Dap = NC[C@H](N)C(=O)O
# Target: T1, PD-1/PD-L1 (Homo sapiens, UniProt Q9NZQ7)
# T1 construct: TVMV protease site (C); made in house; host or cells: HEK293T cells
# Assay: PD-1/PD-L1 Homogenous Time-Resolved Fluorescence (HTRF) binding assay
# Conditions: PD-L1-His 10 nM, PD-1-Ig 20 nM; read-out: HTRF IC50
# Method in brief: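 Inhibitors pre-incubated 15 min with PD-L1-His (10 nM final) in dPBS, 0.1% BSA, 0.05% Tween-20, then 15 min with PD-1-Ig (20 nM final). Eu-cryptate anti-Ig (1 nM) and APC anti-His (20 nM) added, 30 min equilibration; HTRF 665/620 nm ratio. Human ECD proteins from HEK293T.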
# T1 sequence (Q9NZQ7 18-239): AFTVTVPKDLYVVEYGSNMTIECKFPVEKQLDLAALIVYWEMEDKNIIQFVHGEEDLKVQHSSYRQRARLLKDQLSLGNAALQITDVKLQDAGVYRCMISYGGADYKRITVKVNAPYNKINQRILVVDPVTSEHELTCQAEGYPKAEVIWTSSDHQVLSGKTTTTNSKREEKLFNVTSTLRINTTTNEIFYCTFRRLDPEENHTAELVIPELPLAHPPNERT
row,Structure (SMILES),IC50
1,CCCC[C@H]1C(=O)N(C)[C@@H](CCCC)C(=O)N[C@@H](CC(C)C)C(=O)N[C@H](C(=O)NCC(N)=O)CSCC(=O)N[C@@H](Cc2ccc(O)cc2)C(=O)N(C)[C@@H](C)C(=O)N[C@@H](CC(N)=O)C(=O)N2CCC[C@H]2C(=O)N[C@H]2CNc3c(c(=O)c3=O)NCC[C@H](NC(=O)[C@H](Cc3c[nH]c4ccccc34)NC(=O)[C@@H]3C[C@@H](O)CN3C(=O)[C@H](CC(C)C)NC2=O)C(=O)N[C@@H](Cc2cn(CC(=O)N(CCCCNC(=O)CC[C@@H](C)[C@@H]3CC[C@H]4[C@@H]5[C@H](O)C[C@@H]6C[C@H](O)CC[C@]6(C)[C@H]5C[C@H](O)[C@@]43C)CCCNC(=O)CC[C@@H](C)[C@H]3CC[C@H]4[C@@H]5[C@H](O)C[C@@H]6C[C@H](O)CC[C@]6(C)[C@H]5C[C@H](O)[C@]34C)c3ccccc23)C(=O)N1C [Example 6001] ({CH2CO}-Y[NMeA]NP[Dap]L[Hyp]W[Dab][Trp(1-CH2CO)](X2)[NMeNle][NMeNle]LCG-NH2; linker 5-9 via X12; thioether N-14),850 nM
2,CCCC[C@H]1C(=O)N(C)[C@@H](CCCC)C(=O)N[C@@H](CC(C)C)C(=O)N[C@H](C(=O)NCC(N)=O)CSCC(=O)N[C@@H](Cc2ccc(O)cc2)C(=O)N(C)[C@@H](C)C(=O)N[C@@H](CC(N)=O)C(=O)N2CCC[C@H]2C(=O)N[C@@H](CNC(=O)CC[C@@H](C)[C@H]2CC[C@H]3[C@@H]4[C@H](O)C[C@@H]5C[C@H](O)CC[C@]5(C)[C@H]4C[C@H](O)[C@]23C)C(=O)N[C@@H](CC(C)C)C(=O)N2C[C@H](O)C[C@H]2C(=O)N[C@@H](Cc2c[nH]c3ccccc23)C(=O)N[C@@H](CCNC(=O)CC[C@@H](C)[C@H]2CC[C@H]3[C@@H]4[C@H](O)C[C@@H]5C[C@H](O)CC[C@]5(C)[C@H]4C[C@H](O)[C@]23C)C(=O)N[C@@H](Cc2cn(CC(=O)N(CCCCNC(=O)CC[C@@H](C)[C@@H]3CC[C@H]4[C@@H]5[C@H](O)C[C@@H]6C[C@H](O)CC[C@]6(C)[C@H]5C[C@H](O)[C@@]43C)CCCNC(=O)CC[C@@H](C)[C@H]3CC[C@H]4[C@@H]5[C@H](O)C[C@@H]6C[C@H](O)CC[C@]6(C)[C@H]5C[C@H](O)[C@]34C)c3ccccc23)C(=O)N1C [Example 7001] ({CH2CO}-Y[NMeA]NP[Dap](Cholyl)L[Hyp]W[Dab](Cholyl)[Trp(1-CH2CO)](X2)[NMeNle][NMeNle]LCG-NH2; thioether N-14),2 nM
